Data as given in patent publication US10087215B2, “Stabilized SOS1 peptides” (DANA-FARBER CANCER INSTITUTE, INC., priority 2013, dated 2018).
Bridges are numbered along the chain shown (N, C = ends). Where no end group is shown, it is not given here. [ ]: non-standard residue; d: D form. The star is where a group is joined. guanine PNA monomer = guanine peptide-nucleic acid (PNA) monomer, attached to a lysine side chain, NCCN(CC(=O)*)C(=O)Cn1cnc2c(=O)[nH]c(N)nc21; G‑GMONO = glycine-G PNA monomer on lysine; S5 = C=CCCC[C@](C)(N)C(=O)O

How the values were obtained:
KRAS and SOS1 protein = KRAS and SOS1 protein (Homo sapiens, UniProt P01116); assay: Disruption of the association between KRAS and SOS1 protein in vitro; assay type: biochemical
KRAS wild type [1] = biological target: T1, KRAS wild type (Homo sapiens, UniProt P01116); assay: Fluorescence polarization binding assay, wild-type KRAS
Experimental: The affinity of the various peptides is detailed in FIG. 5.
Expression was induced by 1 mM IPTG for 4 hours at 30° C. Collected bacterial pellets were resuspended in lysis buffer (20 mM Tris, 250 mM NaCl, pH 7.6), lysed by microfluidization (Microfluidics M-110L), and centrifuged at 45,000 rpm for 1 h at 4° C. (Beckman L-90K). […] Concentrated eluates were subjected to size exclusion chromatography and the corresponding monomeric peaks were collected. Protein concentration was determined by Bradford assay (BioRad) and UV absorbance measurements.
FP assays were performed as previously described. Briefly, FITC-SAH-SOS peptides (e.g. 15 nM) were incubated with the indicated serial dilution of KRAS wild-type or mutant protein in binding buffer (50 mM Tris, 100 mM NaCl, pH 8.0) until equilibrium was reached. FP was measured using a SpectraMax M5 microplate reader (Molecular Devices). Dissociation constants (KD) were calculated by nonlinear regression analysis of dose-response curves using Prism software (GraphPad). Competition FP assays were performed by using K-RAS proteins (e.g. 250 nM), FITC-SAH-SOS peptides (e.g. 15 nM), and for competition assays, a serial dilution of N-terminal acetylated SAH-SOS peptides.

KRAS wild type [2] = biological target: T1, KRAS wild type; assay: mant-GTP loading of KRAS, wild type; assay type: biochemical
Source text: (§1) The negative control SAH-SOS B2 peptide had no effect (FIG. 11A-D).

Panc 10.05 cells = details: confocal microscopy and lysate fluorescence scan
Experimental: Microscopy was performed 4 hours after dosing cells with the corresponding FITC-conjugated peptides. Complimentary assays to evaluate cell penetrance, including confocal microscopy of treated pancreatic cancer cell lines such as Panc 10.05 (FIG. 12B) and fluorescence scan of lysates from SAH-SOS peptide-treated Panc 10.05 cells (FIG. 12C), were also employed.

KRAS G12D = KRAS G12D (Homo sapiens, UniProt P01116, G12D); assay: mant-GTP loading of KRAS, G12D; assay type: biochemical; details: for inhibition of mant-GTP loading: KRAS G12D oncogenic variant; for inhibition of nucleotide (mant-GTP) loading of KRAS: KRAS G12D per FIG. 20 legend
Source text: as §1
Fluorescent GTP analog, mant-GTP, was used to assess the GTP loading propensity of KRAS protein.

[3] = system: lung, pancreatic, colon, and cervical cancer cell lines; assay: Susceptibility of a diversity of cancer cell lines; assay type: cell-based
Experimental: (§2) We tested a diversity of cancer cells lines to evaluate their susceptibility to SAH-SOS peptide treatments. […] After 4 h incubation with the indicated peptides, HeLa (FIG. 15A) or Panc 10.05 (FIG. 15B) cells were treated with […] (EGF), an upstream KRAS activator, and, lysates were prepared, subjected to electrophoresis, and western blotted with the indicated phospho-specific antibodies. Cells treated with or without EGF, in the absence of added peptide, served as positive and negative controls, respectively.
(§3) The indicated cell lines (10^4/well) were plated overnight (96-well format) in high-glucose DMEM media supplemented with 10% FBS, antibiotics and L-Glutamine. Media was aspirated, and SAH-SOS peptides added at the indicated concentrations in serum-free DMEM. Cell viability was measured at 24 hours using the CellTiter-Glo assay (Invitrogen). The plotted data represent percent viability as normalized to untreated controls.

[4] = system: Myc promoter luciferase reporter in HeLa cells; assay: Myc promoter luciferase reporter assay; assay type: cell-based; details: EGF stimulation, normalized to cell viability
Experimental: HeLa cells transfected with a reporter construct containing luciferase under the control of the Myc promoter was treated with EGF and the indicated concentrations of SAH-SOS peptides (FIG. 16). The luciferase readout was normalized to cell viability and plotted as percent luciferase expression compared to baseline. […] No EGF treatment served as a negative control for the experiment.
HeLa cells (10^4/well) were plated overnight (96-well format) in high-glucose DMEM media supplemented with 10% FBS, antibiotics and L-Glutamine. After 24 hour incubation, cells were transfected with pBV-Luc/Del-6 plasmid that includes a luciferase reporter under c-myc promoter, using Lipofectamine 2000 (Invitrogen) according to the manufacturer's protocol. Twenty-four hours after transfection, the cells were treated with the indicated amounts of SAH-SOS peptides for 4 hours in serum-free media, and then. EGF (50 ng/ml) was added for an additional 4 hour incubation. CellTiter-Glo and luciferase (Invitrogen) kits were used to quantify cell viability and luciferase expression, respectively. Viability data was used to normalize luciferase expression.

wildtype KRAS = wildtype KRAS (Homo sapiens, UniProt P01116); assay: Nucleotide (GTP) exchange assay with mant-GTP; assay type: biochemical; details: mant-GTP loaded KRAS, excess unlabeled GTP (10x)
Experimental: KRAS was loaded with equimolar mant-GTP (a fluorescent GTP analog), and excess unlabeled GTP (10×) is then added to the reaction mixture. The observed decrease in fluorescence reflects the GTP turnover activity at the KRAS active site. SAH-SOS peptides reduce the GTP turnover activity, as reflected by a shift of the curves from the no peptide negative control toward the inhibited exchange (2 mM MgCl2) positive control (FIG. 10).
Nucleotide exchange assays were performed as an association-dissociation experiment in which mant-GTP first associates with K-Ras followed by a dissociation step in which excess unlabeled GTP outcompetes mant-GTP, thus decreasing the fluorescence, as previously described^5. A kinetic readout of fluorescence, corresponding to the dissociation step, was recorded on a Tecan X1000 fluorescence spectrometer (excitation 360 nm, emission 440 nm). The rate of nucleotide exchange was determined by fitting a single exponential function to the dissociation phase readout from the experiment (Prism software, GraphPad). Reactions were performed with the indicated amounts of SAH-SOS peptides in buffer containing 25 mM Tris (pH 7.5), 50 mM NaCl, 1 mM DTT with 2 μM wildtype KRAS, 2 μM mantGTP and 200 μM unlabeled GTP. 2 mM MgCl2 was added as a […] to inhibit mantGTP release.

[5] = system: A549 (lung adenocarcinoma, KRAS G12S); assay: Cell viability, CellTiter-Glo, A549; assay type: cell-based; details: A549, 24 hours
Experimental: as §3

[6] = system: HeLa (cervical cancer, WT KRAS); assay: Cell viability, CellTiter-Glo, HeLa; assay type: cell-based; details: 24 hours
Experimental: as §3

[7] = system: HCT116 (colorectal cancer, KRAS G13D); assay: Cell viability, CellTiter-Glo, HCT116; assay type: cell-based; details: HCT116, 24 hours
Experimental: SAH-SOSB2, which contains a staple position that interferes with the KRAS binding interface, served as a negative control for this experiment. Dose-dependent cytotoxic activity of guanine peptide-nucleic acid derivatives of SAH-SOSC2 was also observed in a series of pancreatic and lung cancer subtypes (FIG. 22).
as §3

[8] = system: mouse embryonic fibroblasts; details: 0.5 μM FITC-conjugated peptide, 4 hours
Experimental: Negative controls include DMSO and an unmodified/unstructured peptide of the BIM BH3 domain. […] Microscopy was performed 4 hours after dosing cells with the corresponding FITC-conjugated peptides.
Briefly, wild-type MEFs were treated with 0.5 μM SAH-SOS peptide or the equivalent amount of control peptides (e.g. BIM BH3, BIM SAHBA) for 4 hours in serum-free DMEM, and then stained with Hoechst dye and CellMask Orange (Invitrogen) for 10 min. The media was aspirated, and cells fixed with 4% paraformaldehyde for 10 min, washed 3× with PBS and imaged using ImageXpress Microscopy (high-throughput epifluorescence microscope, Molecular Devices). The data were analyzed and quantified with MetaXpress software.

[9] = system: phospho-MEK1/2, phospho-ERK1/2, phospho-Akt, phospho-S6K, and phospho-myc in HeLa or Panc 10.05 cells; assay: Phospho-western blotting of downstream KRAS targets after EGF; assay type: cell-based; details: 4 h peptide incubation, then Epidermal Growth Factor (EGF)
Experimental: as §2
HeLa cells (10^5/well) were plated overnight (12-well format) in high-glucose DMEM media supplemented with 10% FBS, antibiotics and L-Glutamine. After 24 hours, cells were treated with the indicated amounts of SAH-SOS peptides for 4 hours in serum-free DMEM, followed by the addition of EGF (50 ng/ml) ([…], Cell Signaling) for an additional 15 minute incubation. The cells were then lysed in buffer containing 0.5% NP-40, 50 mM Tris (pH 7.4), 150 mM NaCl, complete protease inhibitors and PhosphoOne phosphatase inhibitors (Roche), and collected lysates subjected to SDS-PAGE following by western blotting with anti-phospho-Erk1/2, phospho-S6K, phospho-myc (Cell Signaling), and actin (Sigma) antibodies.

Molecule	disruption of KRAS-SOS1 association (KRAS and SOS1 protein)	binding to KRAS, in words (KRAS wild type [1])	inhibition of mant-GTP loading (KRAS wild type [2])	cellular uptake (Panc 10.05 cells)	inhibition of mant-GTP loading (KRAS G12D)	anti-tumor activity in cancer cell lines [3]	myc-driven luciferase expression [4]	GTP exchange activity of KRAS (wildtype KRAS)	cell viability [5]	cell viability [6]	cell viability [7]	cellular uptake [8]	phosphorylation of downstream KRAS targets [9]	inhibition of nucleotide (mant-GTP) loading of KRAS (KRAS G12D)
CC[C@H](C)[C@H](NC(=O)[C@]1(C)CCCC=CCCC[C@](C)(NC(=O)CNC(=O)[C@H](Cc2ccccc2)NC(=O)[C@H](Cc2ccccc2)NC(=O)[C@H](CCCNC(=N)N)NC(=O)[C@H](CCCNC(=N)N)NC(=O)CCNC(=S)Nc2ccc3c(c2)C(=O)OC32c3ccc(O)cc3Oc3cc(O)ccc32)C(=O)N[C@@H](Cc2ccc(O)cc2)C(=O)N[C@@H](CC(C)C)C(=O)N[C@@H]([C@@H](C)O)C(=O)N1)C(=O)N[C@@H](CC(C)C)C(=O)N[C@@H](CCCCN)C(=O)N[C@H](C(=O)N[C@@H](CCC(=O)O)C(=O)N[C@@H](CCC(=O)O)C(=O)NCC(=O)N[C@@H](CC(N)=O)C(N)=O)[C@@H](C)O [SAH-SOSB2, RRFFGXYLTXILKTEEGN]	displayed no such activity	does not bind KRAS	had no effect	dose-dependent cellular uptake was observed	had no effect									
CC[C@H](C)[C@H](NC(=O)CNC(=O)[C@H](Cc1ccccc1)NC(=O)[C@H](Cc1ccccc1)NC(=O)[C@H](CCCNC(=N)N)NC(=O)[C@H](CCCNC(=N)N)NC(=O)CCNC(=S)Nc1ccc2c(c1)C(=O)OC21c2ccc(O)cc2Oc2cc(O)ccc21)C(=O)N[C@@]1(C)CCCC=CCCC[C@@](C)(C(=O)N[C@@H](CC(C)C)C(=O)N[C@@H](CCCCN)C(=O)N[C@H](C(=O)N[C@@H](CCC(=O)O)C(=O)N[C@@H](CCC(=O)O)C(=O)NCC(=O)N[C@@H](CC(N)=O)C(N)=O)[C@@H](C)O)NC(=O)[C@H](CC(N)=O)NC(=O)[C@H]([C@@H](C)O)NC(=O)[C@H](CC(C)C)NC1=O [SAH-SOSC2, RRFFGIXLTNXLKTEEGN]	disrupted the association between KRAS and SOS1 protein	among the highest affinity	dose-responsively inhibited mant-GTP loading	dose-dependent cellular uptake was observed	dose-responsively inhibited mant-GTP loading	demonstrated anti-tumor activity	specifically inhibited myc-driven luciferase expression	reduce the GTP exchange activity of KRAS in vitro in a dose-responsive manner	impairs the viability	impairs the viability	impairs the viability	cellular uptake	dose-responsively inhibited phosphorylation	
RRFFGIXLTNXLRTEK(G-GMONO)GN (RRFFGI[S5]LTN[S5]LRTEK(G‑GMONO)GN; staple 7-11) [SAH-SOS(G-Gmono), SAH-SOSC2 derivative with glycine-conjugated G-monomer on a lysine side chain]														effectively inhibited nucleotide loading
RRFFGIXLTNXLRTEKGN (RRFFGI[S5]LTN[S5]LRTEK(guanine PNA monomer)GN; staple 7-11) [SAH-SOS(Gmono), SAH-SOSC2 derivative with guanine peptide-nucleic acid monomer (Gmono) on a lysine side chain]														effectively inhibited nucleotide loading
